Source: ChEMBL document CHEMBL4118077, “Synthesis of thiazole linked indolyl-3-glyoxylamide derivatives as tubulin polymerization inhibitors” (Eur J Med Chem, 2017)
Active and inactive are the calls of the source. No cut-off for these calls is given here.

Assays:
DU-145 [1] = experiment: Antiproliferative activity against human DU145 cells after 48 hrs by MTT assay; type: functional, cell-based; conditions: DU-145, 48 h
PC-3 = experiment: Antiproliferative activity against human PC3 cells after 48 hrs by MTT assay; type: functional, cell-based; conditions: PC-3, 48 h
A549 = experiment: Antiproliferative activity against human A549 cells after 48 hrs by MTT assay; type: functional, cell-based; conditions: A549, 48 h
HCT-15 = experiment: Antiproliferative activity against human HCT15 cells after 48 hrs by MTT assay; type: functional, cell-based; conditions: HCT-15, 48 h
Sus scrofa = species on record: Sus scrofa; experiment: Inhibition of porcine brain tubulin polymerization at 5 uM measured for 1 hr by fluorescence assay relative to control
DU-145 [2] = experiment: Antimigratory activity against human DU145 cells assessed as inhibition of migration to scratch area at 100 nM after 24 hrs by phase contrast microscopic method relative to control; type: functional; conditions: DU-145, 24 h
DU-145 [3] = experiment: Cell cycle arrest in human DU145 cells assessed as accumulation at subG1 phase at 100 nM after 24 hrs by propidium iodide staining based flow cytometry (reference value: 0.43%); type: functional
DU-145 [4] = experiment: Cell cycle arrest in human DU145 cells assessed as accumulation at subG1 phase at 200 nM after 24 hrs by propidium iodide staining based flow cytometry (reference value: 0.43%); type: functional
DU-145 [5] = experiment: Induction of morphological changes in human DU145 cells assessed as cell shrinkage after 48 hrs by acridine orange/ethidium bromide staining based fluorescence microscopic method; type: functional
RWPE-1 = experiment: Cytotoxicity against human RWPE1 cells assessed as reduction in cell viability after 48 hrs by MTT assay; type: cell-based; conditions: RWPE-1, 48 h
DU-145 [6] = experiment: Antimigratory activity against human DU145 cells assessed as inhibition of migration to scratch area at 200 nM after 24 hrs by phase contrast microscopic method relative to control; type: functional; conditions: DU-145, 24 h
DU-145 [7] = experiment: Antimigratory activity against human DU145 cells assessed as inhibition of migration to scratch area at 400 nM after 24 hrs by phase contrast microscopic method relative to control; type: functional; conditions: DU-145, 24 h
DU-145 [8] = experiment: Antimigratory activity against human DU145 cells assessed as inhibition of migration to scratch area after 24 hrs by phase contrast microscopic method; type: functional, cell-based
DU-145 [9] = experiment: Induction of morphological changes in human DU145 cells assessed as membrane blebbing after 48 hrs by acridine orange/ethidium bromide staining based fluorescence microscopic method; type: functional, cell-based
DU-145 [10] = experiment: Induction of morphological changes in human DU145 cells assessed as apoptotic body formation after 48 hrs by acridine orange/ethidium bromide staining based fluorescence microscopic method; type: functional, cell-based
DU-145 [11] = experiment: Induction of morphological changes in human DU145 cells assessed as nuclear fragmentation at 100 to 200 nM after 48 hrs by DAPI staining based fluorescence microscopic method; type: functional, cell-based
DU-145 [12] = experiment: Induction of morphological changes in human DU145 cells assessed as nuclear condensation at 100 to 200 nM after 48 hrs by DAPI staining based fluorescence microscopic method; type: functional, cell-based
DU-145 [13] = experiment: Cell cycle arrest in human DU145 cells assessed as accumulation at G0/G1 phase at 100 nM after 24 hrs by propidium iodide staining based flow cytometry (reference value: 63.77%); type: functional
DU-145 [14] = experiment: Cell cycle arrest in human DU145 cells assessed as accumulation at S phase at 100 nM after 24 hrs by propidium iodide staining based flow cytometry (reference value: 14.8%); type: functional
DU-145 [15] = experiment: Cell cycle arrest in human DU145 cells assessed as accumulation at G2/M phase at 100 nM after 24 hrs by propidium iodide staining based flow cytometry (reference value: 25.88%); type: functional
DU-145 [16] = experiment: Cell cycle arrest in human DU145 cells assessed as accumulation at G0/G1 phase at 200 nM after 24 hrs by propidium iodide staining based flow cytometry (reference value: 63.77%); type: functional
DU-145 [17] = experiment: Cell cycle arrest in human DU145 cells assessed as accumulation at S phase at 200 nM after 24 hrs by propidium iodide staining based flow cytometry (reference value: 14.8%); type: functional
DU-145 [18] = experiment: Cell cycle arrest in human DU145 cells assessed as accumulation at G2/M phase at 200 nM after 24 hrs by propidium iodide staining based flow cytometry (reference value: 25.88%); type: functional
DU-145 [19] = experiment: Cell cycle arrest in human DU145 cells assessed as accumulation at subG1 phase at 400 nM after 24 hrs by propidium iodide staining based flow cytometry (reference value: 0.43%); type: functional
DU-145 [20] = experiment: Cell cycle arrest in human DU145 cells assessed as accumulation at G0/G1 phase at 400 nM after 24 hrs by propidium iodide staining based flow cytometry (reference value: 63.77%); type: functional
DU-145 [21] = experiment: Cell cycle arrest in human DU145 cells assessed as accumulation at S phase at 400 nM after 24 hrs by propidium iodide staining based flow cytometry (reference value: 14.8%); type: functional
DU-145 [22] = experiment: Cell cycle arrest in human DU145 cells assessed as accumulation at G2/M phase at 400 nM after 24 hrs by propidium iodide staining based flow cytometry (reference value: 25.88%); type: functional
DU-145 [23] = experiment: Cell cycle arrest in human DU145 cells assessed as accumulation at G2/M phase after 24 hrs by propidium iodide staining based flow cytometry; type: functional
DU-145 [24] = experiment: Induction of apoptosis in human DU145 cells after 24 hrs by Annexin V-FITC/propidium iodide staining based flow cytometry; type: functional, cell-based
DU-145 [25] = experiment: Induction of apoptosis in human DU145 cells assessed as live cells at 200 nM after 24 hrs by Annexin V-FITC/propidium iodide staining based flow cytometry (reference value: 85.71%); type: functional
DU-145 [26] = experiment: Induction of apoptosis in human DU145 cells assessed as early apoptotic cells at 200 nM after 24 hrs by Annexin V-FITC/propidium iodide staining based flow cytometry (reference value: 5.92%); type: functional
DU-145 [27] = experiment: Induction of apoptosis in human DU145 cells assessed as late apoptotic cells at 200 nM after 24 hrs by Annexin V-FITC/propidium iodide staining based flow cytometry (reference value: 6.55%); type: functional
DU-145 [28] = experiment: Induction of apoptosis in human DU145 cells assessed as necrotic cells at 200 nM after 24 hrs by Annexin V-FITC/propidium iodide staining based flow cytometry (reference value: 1.82%); type: functional
DU-145 [29] = experiment: Induction of apoptosis in human DU145 cells assessed as live cells at 400 nM after 24 hrs by Annexin V-FITC/propidium iodide staining based flow cytometry (reference value: 85.71%); type: functional
DU-145 [30] = experiment: Induction of apoptosis in human DU145 cells assessed as early apoptotic cells at 400 nM after 24 hrs by Annexin V-FITC/propidium iodide staining based flow cytometry (reference value: 5.92%); type: functional
DU-145 [31] = experiment: Induction of apoptosis in human DU145 cells assessed as late apoptotic cells at 400 nM after 24 hrs by Annexin V-FITC/propidium iodide staining based flow cytometry (reference value: 6.55%); type: functional
DU-145 [32] = experiment: Induction of apoptosis in human DU145 cells assessed as necrotic cells at 400 nM after 24 hrs by Annexin V-FITC/propidium iodide staining based flow cytometry (reference value: 1.82%); type: functional
DU-145 [33] = experiment: Induction of mitochondrial membrane potential loss in human DU145 cells assessed as depolarized cell population at 200 nM after 24 hrs by JC-1 staining based flow cytometry (reference value: 22.28%); type: functional
DU-145 [34] = experiment: Induction of mitochondrial membrane potential loss in human DU145 cells assessed as intact membrane cell population at 200 nM after 24 hrs by JC-1 staining based flow cytometry (reference value: 77.24%); type: functional
DU-145 [35] = experiment: Induction of mitochondrial membrane potential loss in human DU145 cells assessed as depolarized cell population at 400 nM after 24 hrs by JC-1 staining based flow cytometry (reference value: 22.28%); type: functional
DU-145 [36] = experiment: Induction of mitochondrial membrane potential loss in human DU145 cells assessed as intact membrane cell population at 400 nM after 24 hrs by JC-1 staining based flow cytometry (reference value: 77.24%); type: functional
DU-145 [37] = experiment: Induction of mitochondrial membrane potential loss in human DU145 cells after 24 hrs by JC-1 staining based flow cytometry; type: functional, cell-based
DU-145 [38] = experiment: Induction of intracellular mitochondrial superoxide generation in human DU145 cells after 48 hrs by MitoSOX staining based fluorescence microscopic method; type: functional, cell-based

SMILES: O=C(Cn1cc(C(=O)C(=O)N2CCCCC2)c2ccccc21)Nc1nccs1
- IC50 (DU-145 [1]): > 50 µM
- IC50 (PC-3): > 50 µM
- IC50 (A549): > 50 µM
- IC50 (HCT-15): > 50 µM

SMILES: CCOC(=O)c1nc(NC(=O)Cn2cc(C(=O)C(=O)NC3CC3)c3ccccc32)sc1C
- IC50 (DU-145 [1]): 4.6 µM
- IC50 (PC-3): 8.5 µM
- IC50 (A549): 20.9 µM
- IC50 (HCT-15): 10.3 µM
- inhibition (Sus scrofa): 21.3%

SMILES: COc1ccc2sc(NC(=O)Cn3cc(C(=O)C(=O)N4CCCCC4)c4ccccc43)nc2c1
- IC50 (DU-145 [1]): 6.4 µM
- IC50 (PC-3): 4.2 µM
- IC50 (A549): > 50 µM
- IC50 (HCT-15): > 50 µM
- inhibition (Sus scrofa): 38.5%

SMILES: O=C(Cn1cc(C(=O)C(=O)Nc2ccccc2)c2cc(Br)ccc21)Nc1nccs1
- IC50 (DU-145 [1]): 25.5 µM
- IC50 (PC-3): > 50 µM
- IC50 (A549): 43.7 µM
- IC50 (HCT-15): > 50 µM

SMILES: COc1ccc2sc(NC(=O)Cn3cc(C(=O)C(=O)Nc4ccccc4)c4cc(Br)ccc43)nc2c1
- IC50 (DU-145 [1]): 5.6 µM
- IC50 (PC-3): 13.6 µM
- IC50 (A549): > 50 µM
- IC50 (HCT-15): 12.5 µM
- inhibition (Sus scrofa): 23.3%

SMILES: CCOC(=O)c1nc(NC(=O)Cn2cc(C(=O)C(=O)N3CCCCC3)c3ccccc32)sc1C
- IC50 (DU-145 [1]): 3.21 µM
- IC50 (PC-3): 8.2 µM
- IC50 (A549): > 50 µM

SMILES: CCOC(=O)c1nc(NC(=O)Cn2cc(C(=O)C(=O)Nc3ccccc3)c3ccccc32)sc1C
- IC50 (DU-145 [1]): 0.14 µM
- IC50 (PC-3): 6.1 µM
- IC50 (A549): 6.3 µM
- IC50 (HCT-15): 2.5 µM
- inhibition (Sus scrofa): 58.4%

SMILES: O=C(Cn1cc(C(=O)C(=O)Nc2ccccc2)c2ccccc21)Nc1nccs1
- IC50 (DU-145 [1]): 5.15 µM
- IC50 (PC-3): > 50 µM
- IC50 (A549): 20.9 µM
- IC50 (HCT-15): > 50 µM
- inhibition (Sus scrofa): 23.5%

SMILES: COc1ccc2sc(NC(=O)Cn3cc(C(=O)C(=O)Nc4ccccc4)c4ccccc43)nc2c1
- inhibition at 0.1 µM (DU-145 [2]): 74.8%
- Activity (DU-145 [3]): 17.37%
- Activity (DU-145 [4]): 5.88%
- Activity (DU-145 [5]): Dose-dependent effect
- IC50 (DU-145 [1]): 0.093 µM
- IC50 (PC-3): 0.361 µM
- IC50 (A549): 2.1 µM
- IC50 (HCT-15): 0.18 µM
- IC50 (RWPE-1): 0.71 µM
- inhibition (Sus scrofa): 68.5%
- inhibition at 0.2 µM (DU-145 [6]): 44%
- inhibition at 0.4 µM (DU-145 [7]): 34.8%
- inhibition (DU-145 [8]): Dose-dependent effect
- Activity (DU-145 [9]): Dose-dependent effect
- Activity (DU-145 [10]): Dose-dependent effect
- Activity (DU-145 [11]): Active
- Activity (DU-145 [12]): Active
- Activity (DU-145 [13]): 47.69%
- Activity (DU-145 [14]): 5.8%
- Activity (DU-145 [15]): 30.15%
- Activity (DU-145 [16]): 51.89%
- Activity (DU-145 [17]): 8.26%
- Activity (DU-145 [18]): 34.07%
- Activity (DU-145 [19]): 26.89%
- Activity (DU-145 [20]): 16.32%
- Activity (DU-145 [21]): 5.51%
- Activity (DU-145 [22]): 50.9%
- Activity (DU-145 [23]): Dose-dependent effect
- Activity (DU-145 [24]): Dose-dependent effect
- Activity (DU-145 [25]): 84.72%
- Activity (DU-145 [26]): 5.89%
- Activity (DU-145 [27]): 5.81%
- Activity (DU-145 [28]): 3.58%
- Activity (DU-145 [29]): 45.47%
- Activity (DU-145 [30]): 16.84%
- Activity (DU-145 [31]): 33.63%
- Activity (DU-145 [32]): 4.06%
- Activity (DU-145 [33]): 57.05%
- Activity (DU-145 [34]): 42.39%
- Activity (DU-145 [35]): 64.65%
- Activity (DU-145 [36]): 34.21%
- Activity (DU-145 [37]): Dose-dependent effect
- Activity (DU-145 [38]): Dose-dependent effect

SMILES: O=C(CCn1cc(C(=O)C(=O)N2CCCCC2)c2ccccc21)Nc1nccs1
- IC50 (DU-145 [1]): > 50 µM
- IC50 (PC-3): > 50 µM
- IC50 (A549): > 50 µM
- IC50 (HCT-15): > 50 µM

SMILES: COc1ccc2sc(NC(=O)Cn3cc(C(=O)C(=O)NC4CC4)c4ccccc43)nc2c1
- IC50 (DU-145 [1]): 5.5 µM
- IC50 (PC-3): 9.4 µM
- IC50 (A549): > 50 µM
- IC50 (HCT-15): > 50 µM
